We go through one molecule from patent publication US20220142934A1, “COMBINATION THERAPEUTICS AND METHODS FOR THE TREATMENT OF NEURODEGENERATIVE AND OTHER DISEASES” (Aphios Corporation, priority 2020, published 2022).

Assay [1] has as its system SH-SY5Y neuroblastoma cells. Kind of assay: sAPPα formation/release in SH-SY5Y cells (6E10 western blot, densitometry). It is filed as cell-based. The conditions noted are these: Bryostatin-1 alone. The procedure:
Cells were treated with RA, Bryostatin-1 (10^−9M)+RA, Bryostatin-1 (10^−10M) RA+Bryostatin-1 (10^−10M) for 3 h. Representative western blots show sAPPα recovered from culture medium.
(In western blotting, separated proteins are transferred to a membrane and probed.)

The next assay concerns ADAM10. Briefly: ADAM10 (alpha-secretase) expression in SH-SY5Y cells. The format is cell-based. The conditions noted are these: each agent alone or in combination. The source says: Therefore, Bryostatin-1 may increase a-secretase processing through 2 independent mechanisms: (i) activation of PKCs which stimulate secretase; and (ii) increased expression of a-secretase.
Assay [2] has as its system Mouse strain B6C3-Tg carrying mutant Swedish Amyloid precursor protein (sweAPP) and PSI (presenilin-l) genes. Briefly: Water maze studies in Alzheimer's disease mouse model. It is filed as in vivo. The source says:
Mouse strain B6C3-Tg carrying mutant Swedish Amyloid precursor protein (sweAPP) and PSI (presenilin-l) genes associated with early onset Alzheimer's disease were subjected to water maze tests at 5-6 months of age.

The subject of the next assay is prostate cancer cells. The note with it: by modulating PKC delta translocation and preventing TNF-alpha release; cited from earlier work.

Regarding `CCC/C=C/C=C/C(=O)O[C@H]1/C(=C/C(=O)OC)C[C@H]2C[C@H]([C@@H](C)O)OC(=O)C[C@H](O)C[C@@H]3C[C@H](OC(C)=O)C(C)(C)[C@](O)(C[C@@H]4C/C(=C/C(=O)OC)C[C@H](/C=C/C(C)(C)[C@]1(O)O2)O4)O3` [Bryostatin-1], the sAPPα formation result in assay [1] (10^−9M, SH-SY5Y cells) is reported as “increased”. Moreover, the “sAPPα recovered from culture medium” value in assay [1] (10^−10M, 3 h, SH-SY5Y cells, vs control) is “significantly increased”. The activity of alpha-secretase entry in assay [1] (SH-SY5Y neuroblastoma cells) is given as “potently stimulate”. Also, the “expression of ADAM10 (the major form of alpha-secretase)” value in the assay with ADAM10 was “significantly increase”. Moreover, in assay [2] (5 micrograms/mouse on alternative days orally in an oil formulation, mice 5-6 months of age, vs control animals), the “protection against Alzheimer's disease mediated memory loss (water maze)” value is recorded as “significant protection”. The “memory and cognition in AD model” value in assay [2] (mouse, in vivo) was “enhance memory and cognition”. The phorbol ester-induced apoptosis entry in the assay with prostate cancer cells was “inhibits”.
